Experimental data reported in patent publication US7871981B2, “Inhibition of cell motility, angiogenesis, and metastasis” (The United States of America as represented by the …, priority 1999, dated 2011).

Tests used:
HUVE cells [1] = experiment: HUVE cell migration, modified Boyden chamber; assay type: cell-based, human
Method: (§1) The migration assay of HUVE and HMEC-1 cells in modified Boyden chambers was adapted from previously described procedures (Murohara et al., Thromb. Vasc. Biol., 19: 1156-61 (1999), Malinda et al., FASEB J., 13: 53-62 (1999)). In brief, Biocoat Cell Environment control inserts (8 micron pore size; Becton Dickinson) were coated with 0.1% gelatin (Sigma) for at least 1 hour at 37° C. and air dried. Lower chambers contained 0.7 ml RPMI+0.1% BSA, to which 20 ng/ml HGF and/or 300 nM Grb2 inhibitors were added. Cells were pre-treated with the indicated concentrations of Grb2 inhibitors for 18-24 hours, trypsinized, washed twice in RPMI+0.1% BSA, added to upper chambers (5×10^4 cells/well) with or without inhibitors in a final volume of 0.5 ml, and incubated for 4 h at 37° C. Cells on the upper surface of each filter were removed with a cotton swab, while cells that had traversed to the bottom surface of the filter were fixed and stained using Diff-Quik (Dade Diagnostics) and counted using a 10× objective. Mean values from 4 randomly selected fields (1×1.4 mm) were calculated for each of triplicate wells per experimental condition. Shown in FIG. 6 is the ratio of growth factor-treated to control migrating cells designated on the y-axis as “Migration (Fold Increase)” or as the mean number of cells per optical field in FIGS. 8-11.

TAC-2 cells = experiment: Epithelial tube formation assay, TAC-2 cells in collagen gels; assay type: cell-based; conditions: for HGF-induced elongation of epithelial tubes (cord length): HGF 20 ng/ml, 3 days; for concentration at which a sub-maximal inhibitory effect is already observed: HGF-induced tube elongation
Method: TAC-2 cells were suspended in three-dimensional collagen gels at 1×10^4 cells/ml in collagen and incubated in complete medium containing HGF and/or Grb2 inhibitors as indicated. After 3 days, the cultures were fixed with 2.5% glutaraldehyde in 0.1 M cacodylate buffer, and at least 3 randomly selected fields per experimental condition in each of 3 separate experiments were digitally recorded with brightfield microscopy. The total length of the cords in each individual colony present in each optical field was measured with IPLab. Cord length was considered as “0” in: a) colonies with a spheroidal shape, and b) slightly elongated structures in which the length to diameter ratio was less than 2. The mean values for each experimental condition were compared to controls using the Student's unpaired t-test. Results in FIG. 5 are described as mean total cord length (in μm) per field.

HUVECs = experiment: HUVE cell tubulogenesis assay on Matrigel; assay type: cell-based, human
Method: The HUVE tube formation assay was performed as previously described (Grant et al., J. Cell. Physiol., 153: 614-625 (1992)). Briefly, 96-well plates were coated with 90 μl of Matrigel (10 mg/ml) (Collaborative Research) (Baatout, supra) and incubated at 37° C. for 30 min to promote gelling. 10,000 HUVECs were resuspended in reduced growth medium (serum concentration 10% and 5 U/ml heparin) and added to each well with the indicated reagents in a final volume of 100 μl. After 18 h, the plates were fixed with Diff-Quik, and at least 4 randomly selected fields per experimental conditions were digitally recorded under bright field illumination using a 10× objective. The mean additive length of the cords present in each optical field was measured using IPLab and compared to controls using the Student's unpaired t-test.

HMEC-1 cells [2] = experiment: HMEC-1 cell migration, modified Boyden chamber; assay type: cell-based, human
Method: as §1

HMEC-1 cells [3] = experiment: Endothelial cell tubulogenesis assay on collagen (HMEC-1 collagen invasion); assay type: cell-based, human
Method: HMEC-1 cell tubulogenesis assay on collagen gels was adapted from a previously described procedure (Montesano et al., Cell, 42: 469-77 (1985), Pepper et al., Exp. Cell Res., 204: 356-63 (1993)). Cells were seeded onto collagen gels cast in 16-mm wells (2.5×10^4 cells/well) and grown to confluence in reduced growth medium (5% FCS and 150 μg/ml ECGS). At confluence cells were pre-treated with or without Grb2 inhibitors for 24 hours, after which time medium was replaced by fresh medium supplemented with or without the indicated concentration of inhibitors and/or 20 ng/ml HGF. Medium and compounds were changed every day. After 24 hours, the cultures were fixed in situ, and 5 randomly selected optical fields per experimental condition in each of three separate experiments were digitally recorded under phase contrast microscopy using a 20× phase contrast objective, by focusing 20 μm beneath the surface of the gel. Invasion was quantitated using IPLab software (Scanalytics, Fairfax, Va.) by measuring the total length of all cellular structures that had penetrated beneath the surface monolayer either as apparently single cells or in the form of cell cords. Values were compared using Student's unpaired t-test and a significant value was taken at P<0.001. Results set forth in FIG. 7 are the mean total length (in μm) per field.

MDCK cells = experiment: Extracellular matrix invasion assay, MDCK cells in collagen gels; assay type: cell-based, canine; conditions: peptide 100 nM
Method: MDCK cell invasion into three-dimensional collagen gels was analyzed as previously described. Briefly, type I collagen (1.5 mg/ml; Cohesion Technologies) was mixed with 10×MEM and sodium bicarbonate (11.76 mg/ml) at a ratio of 8:1:1 (vol:vol:vol) on ice, and 0.4 ml aliquots were dispensed into 16-mm tissue culture wells (Nunc), and allowed to gel at 37° C. for 20 min. Cells were seeded onto gels (1×10^4 cells/well) in 0.4 ml of growth medium containing HGF and/or peptides 1 or 4 as indicated. After 5 days, cells were fixed in situ in 2.5% glutaraldehyde in 0.1 M sodium cacodylate buffer (pH 7.4), and cells that had invaded the gel below the surface monolayer in ten randomly selected fields (1×1.4 mm) were counted microscopically using a 20× phase contrast objective. Depth of cellular invasion into the collagen gel was quantitated in the same ten fields per treatment group using a calibrated fine focusing micrometer. Values were compared using the Student's unpaired t-test and a significant value was taken as P<0.001. Results in Table 1 are shown as the mean number of invading cells/field or mean invasion depth/cell in microns+standard error of the mean.
MDCK cells were left untreated (Control), treated with HGF (10 ng/ml), or HGF+peptide 2 or 4 (100 nM), and invasion into collagen matrices was quantitated microscopically as described above. Values are the mean of at least 10 randomly selected fields±standard error of the mean. Epithelial Tube Formation Assay

HUVE cells [4] = experiment: HUVE cell proliferation; assay type: cell-based, human; conditions: growth factor alone: HGF 25 ng/ml, VEGF 10 ng/ml, bFGF 5 ng/ml
Method: HUVE or HMVE cells were seeded per triplicate in type I collagen-coated 48-well plates (Biocoat) (3000 cells/well) in […] of complete EGM-Bullet Kit medium (BioWhittaker, Walkersville, Md.), allowed to attach for 4 hr and incubated overnight with or without the indicated concentrations of peptide 2. The cultures were rinsed twice in serum-free medium and incubated with EBM medium (BioWhittaker) supplemented with 50 μg/ml heparin, 50 μg/ml ascorbic acid and 10% FCS. After either 4 days (HUVE) or 5 days (HMVE), cells were harvested with trypsin/EDTA and counted with an hemocytometer. The mean number of cells per ml was calculated from 3 independent measures for each of triplicate wells per experimental condition and compared to controls using the Student's unpaired t-test. Results set forth in FIG. 12 are described as the ratio of growth factor-treated to control proliferating cells designated on the y-axis as “Proliferation (Fold Increase)”.

NIH 3T3 fibroblasts = experiment: NIH 3T3 fibroblast migration, modified Boyden chamber; assay type: cell-based; conditions: PDGF-BB 50 ng/ml alone
Method: as §1
PDGF is implicated in different biological processes such vascular remodeling, wound healing and cancer (for reviews, see Bornfeldt et al., Ann N Y Acad. Sci., 766:416-30, 1995; Gendron, Surv. Ophthalmol., 44:184-5, 1999). Addition of 50 ng/ml PDGF-BB to NIH 3T3 fibroblasts incubated in a modified Boyden chamber results in a dramatic, 20-fold increase in cell migration. […] This observation opens a potential therapeutical use of the Grb2 inhibitor compounds in the treatment of diseases such as cancer, wound healing disorders, vascular complications of diabetes mellitus, vascular nephropathies, and diseases with occurrence of fibrosis.

[5] = peptide 300 nM, no growth factor

Molecule: CCCCCCCCCCCCCC(=O)O[C@@H]1[C@@H](C)[C@@]2(O)[C@@H](C=C(CO)C[C@]3(O)C(=O)C(C)=C[C@@H]23)[C@@H]2C(C)(C)[C@]12OC(C)=O [PMA, phorbol myristate acetate, reference compound]
- increase of cell migration (HUVE cells [1]; PMA 40 ng/ml alone): 300%

Molecule: NC(=O)C[C@H](NC(=O)C1(NC(=O)[C@H](Cc2ccc(CP(=O)(O)O)cc2)NC(=O)C(=O)O)CCCCC1)C(=O)NCCCc1cccc2ccccc12 [peptide 1, oxalyl-Pmp-Ac6c-Asn-NH-(3-naphthalen-1-yl-propyl)]
- bFGF-induced HUVEC migration (HUVE cells [1]; peptide 300 nM): complete blockade
- HGF-induced increase on cell motility (HUVE cells [1]; peptide 300 nM, HGF 20 ng/ml): practically reverted to basal levels
- basal levels of endothelial cell motility (HUVE cells [1]; [5]): did not significantly alter
- HGF-induced elongation of epithelial tubes (cord length) (TAC-2 cells): significantly (p<0.0001) abrogate
- concentration at which a sub-maximal inhibitory effect is already observed (TAC-2 cells): 30 nM
- elongation and branching of duct-like structures (TAC-2 cells; co-addition with HGF 20 ng/ml): abrogated the elongation and branching of duct-like structures
- mean length of the cords per optical field (HUVECs; HGF/NK1 300 ng/ml, peptide 1 μM, 18 h): 2502.8±108 μm
- extent of cord formation (HUVECs; peptide 1 μM + HGF/NK1): markedly reduced the extent of cord formation
- decrease in mean cord length vs HGF/NK1 alone (HUVECs; peptide 1 μM + HGF/NK1 300 ng/ml): 30%
- HGF-induced increase on cell motility (HMEC-1 cells [2]; peptide 300 nM, HGF 20 ng/ml): practically reverted to basal levels
- basal levels of endothelial cell motility (HMEC-1 cells [2]; [5]): did not significantly alter
- collagen invasion induced by HGF (HMEC-1 cells [3]; peptide 30-300 nM, HGF 20 ng/ml): suppressed

Molecule: CC(=O)N[C@@H](Cc1ccc(C(C(=O)O)C(=O)O)cc1)C(=O)NC1(C(=O)N[C@@H](CC(N)=O)C(=O)NCCCc2cccc3ccccc23)CCCCC1 [peptide 3, (N-acetyl-4-malonyl)-Phe-Ac6c-Asn-NH-(3-naphthalen-1-yl-propyl)]
- HGF-induced elongation of epithelial tubes (cord length) (TAC-2 cells): significantly (p<0.0001) abrogate
- concentration at which a sub-maximal inhibitory effect is already observed (TAC-2 cells): 30 nM
- reduction of the mean depth of invasion per cell (MDCK cells; HGF-stimulated): at least 50%
- reduction of the number of invading cells (MDCK cells; HGF-stimulated): at least 50%

Molecule: HGF: hepatocyte growth factor, recombinant human
- increase in the mean number of HUVE cells per ml (proliferation) (HUVE cells [4]): 2.3 fold
- increase on cell motility induced by growth factor (HUVE cells [1]; HGF 20 ng/ml alone): 3.5 fold
- Mean Invading Cells/Field (MDCK cells; HGF 10 ng/ml, 5 days): 29.7 ± 2.6
- Mean Invasion Depth/Cell (MDCK cells; HGF 10 ng/ml, 5 days): 35.6 ± 2.7 μm
- increase on cell motility induced by growth factor (HMEC-1 cells [2]; HGF 20 ng/ml alone): 5.5 fold
- increase in collagen invasion (HMEC-1 cells [3]; HGF 20 ng/ml alone): 6 fold

Molecule: VEGF
- increase in the mean number of HUVE cells per ml (proliferation) (HUVE cells [4]): 2 fold

Molecule: bFGF: human recombinant basic fibroblast growth factor
- increase in the mean number of HUVE cells per ml (proliferation) (HUVE cells [4]): 4.1 fold

B1: PDGF-BB: platelet-derived growth factor used to stimulate NIH 3T3 migration (protein, UniProt P01127 82-190, looked up)
Platelet-derived growth …: SLGSLTIAEPAMIAECKTRTEVFEISRRLIDRTNANFLVWPPCVEVQRCSGCCNNRNVQCRPTQVQLRPVQVRKIEIVRKKPIFKKATVTLEDHLACKCETVAAARPVT
modifications: homodimer
notes: platelet-derived growth factor used to stimulate NIH 3T3 migration
- increase in cell migration (NIH 3T3 fibroblasts): 20 fold
